The results in this text go back to article PMC10616201, “Antioxidant and α-glucosidase inhibitory activities of compound isolated from Stachytarpheta jamaicensis (L) Vahl. leaves” (Scientific Reports, 2023).

This experiment deals with T1, α-glucosidase (EC 3.2.1.20; rat intestinal acetone powder).
T1 construct: gene Si; crude supernatant of rat intestinal acetone powder (Sigma 1639) in normal saline; native, unpurified; maltase activity read as glucose release
The experiment is described as follows: glucose release from maltose, glucose kit, absorbance […] nm. It counts as biochemical. The settings on record: 10 mM maltose, 0.1 M buffer pH 6.9, 10 min, crude rat intestinal supernatant.

Turning to `COC(=O)C1=CO[C@@H](O[C@@H]2O[C@H](CO)[C@@H](O)[C@H](O)[C@H]2O)[C@H]2[C@]1(O)[C@H](O)C[C@]2(C)O` [compound 1, 6β-hydroxyipolamiide], the “α-Glucosidase inhibition / IC50” value stood at 537.79 ± 45.04 µg/mL.
